Key:
human EHMT2 913-1193 = biological target: T1, human EHMT2 913-1193 (Homo sapiens, UniProt Q96KQ7); assay: EHMT2 enzyme assay on histone peptide substrate (EHMT2 PEP); assay type: biochemical; details: Table II; read-out: EHMT2 PEP (IC50 μM)
T1 construct: recombinant purified human EHMT2 913-1193, Viva; purchased Viva
T1 sequence (Q96KQ7 913-1193): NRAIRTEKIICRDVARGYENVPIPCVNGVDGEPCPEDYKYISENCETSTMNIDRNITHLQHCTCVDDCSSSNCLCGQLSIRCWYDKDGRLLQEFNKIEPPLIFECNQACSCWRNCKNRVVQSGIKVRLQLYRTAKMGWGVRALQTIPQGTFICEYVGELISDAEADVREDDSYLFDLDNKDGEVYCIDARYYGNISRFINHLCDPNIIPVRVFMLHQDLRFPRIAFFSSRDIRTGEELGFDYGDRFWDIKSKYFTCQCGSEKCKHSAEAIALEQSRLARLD
Description: Recombinant purified human EHMT2 913-1193 (55 μM) synthesized by Viva was used for all experiments. Biotinylated histone peptides were synthesized by Biopeptide and HPLC-purified to >95% purity. Streptavidin Flashplates and seals were purchased from PerkinElmer and 384 Well V-bottom Polypropylene Plates were from Greiner. ^3H-labeled S-adenosylmethionine (^3H-SAM) was obtained from American Radiolabeled Chemicals with a specific activity of 80 Ci/mmol. Unlabeled SAM and S-adenosylhomocysteine (SAH) were obtained from American Radiolabeled Chemicals and Sigma-Aldrich respectively. Flashplates were washed in a Biotek ELx-405 with 0.1% Tween. 384-well Flashplates and 96-well filter binding plates were read on a TopCount microplate reader (PerkinElmer). Compound serial dilutions were performed on a Freedom EVO (Tecan) and spotted into assay plates using a Thermo Scientific Matrix PlateMate (Thermo Scientific). Reagent cocktails were added by Multidrop Combi (Thermo Scientific).
General Procedure for EHMT2 Enzyme Assay on Histone Peptide Substrate.
10-point curves of test compounds were made on a Freedom EVO (Tecan) using serial 3-fold dilutions in DMSO, beginning at 2.5 mM (final top concentration of compound was 50 μM and the DMSO was 2%). A 1 μL aliquot of the inhibitor dilution series was spotted in a polypropylene 384-well V-bottom plate (Greiner) using a Thermo Scientific Matrix PlateMate (Thermo Scientific). […] Compounds were incubated for 30 minutes with 40 μL per well of 0.031 nM EHMT2 (recombinant purified human EHMT2 913-1193, Viva) in 1× assay buffer (20 mM Bicine [pH 7.5], 0.002% Tween 20, 0.005% Bovine Skin Gelatin and 1 mM TCEP). […] Reactions were incubated for 60 minutes at room temperature and quenched with 10 μL per well of 400 μM unlabeled SAM, then transferred to a 384-well streptavidin Flashplate (PerkinElmer) and washed in a Biotek ELx-405 well washer with 0.1% Tween after 60 minutes. 384-well Flashplates were read on a TopCount microplate reader (PerkinElmer).

EHMT1 = biological target: T2, EHMT1 (Homo sapiens, UniProt Q9H9B1); assay: EHMT1 enzyme assay on peptide substrate (EHMT1 PEP); assay type: biochemical; details: Table II; read-out: EHMT1 PEP (IC50 μM)
T2 sequence (Q9H9B1 1-1298): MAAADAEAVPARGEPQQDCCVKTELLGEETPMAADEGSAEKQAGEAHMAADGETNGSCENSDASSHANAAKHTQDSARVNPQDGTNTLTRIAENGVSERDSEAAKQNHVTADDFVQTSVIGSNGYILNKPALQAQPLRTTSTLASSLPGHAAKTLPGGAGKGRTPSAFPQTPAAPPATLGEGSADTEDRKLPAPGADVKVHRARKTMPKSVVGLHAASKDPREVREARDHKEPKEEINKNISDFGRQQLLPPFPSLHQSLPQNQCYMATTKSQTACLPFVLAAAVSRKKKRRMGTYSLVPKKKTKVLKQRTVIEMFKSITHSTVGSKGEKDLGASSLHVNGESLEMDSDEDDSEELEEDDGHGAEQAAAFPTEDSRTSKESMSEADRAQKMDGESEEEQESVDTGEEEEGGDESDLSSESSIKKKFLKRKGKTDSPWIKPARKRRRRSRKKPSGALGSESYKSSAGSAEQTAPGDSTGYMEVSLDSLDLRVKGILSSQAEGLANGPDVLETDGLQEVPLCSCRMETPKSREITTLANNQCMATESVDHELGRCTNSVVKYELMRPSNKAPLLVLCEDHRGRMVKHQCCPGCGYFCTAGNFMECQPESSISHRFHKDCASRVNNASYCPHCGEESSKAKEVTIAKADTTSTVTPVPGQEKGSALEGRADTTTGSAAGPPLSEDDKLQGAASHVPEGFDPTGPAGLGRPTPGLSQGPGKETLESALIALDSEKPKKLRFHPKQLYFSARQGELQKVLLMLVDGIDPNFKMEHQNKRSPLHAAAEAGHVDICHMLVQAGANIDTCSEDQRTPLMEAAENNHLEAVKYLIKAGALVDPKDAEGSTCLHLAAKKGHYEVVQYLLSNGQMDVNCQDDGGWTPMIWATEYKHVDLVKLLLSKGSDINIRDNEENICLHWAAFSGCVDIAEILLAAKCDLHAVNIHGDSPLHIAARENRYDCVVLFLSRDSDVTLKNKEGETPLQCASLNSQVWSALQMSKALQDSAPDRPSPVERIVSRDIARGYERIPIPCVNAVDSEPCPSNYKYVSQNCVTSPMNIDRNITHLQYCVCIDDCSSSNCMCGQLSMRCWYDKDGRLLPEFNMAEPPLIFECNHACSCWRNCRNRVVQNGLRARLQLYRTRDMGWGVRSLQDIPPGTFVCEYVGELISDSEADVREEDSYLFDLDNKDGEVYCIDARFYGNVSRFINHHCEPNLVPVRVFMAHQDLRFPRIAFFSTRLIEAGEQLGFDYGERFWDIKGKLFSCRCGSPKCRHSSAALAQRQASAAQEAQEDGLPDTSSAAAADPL

| SMILES | IC50 (human EHMT2 913-1193) [µM] | IC50 (EHMT1) [µM] |
| --- | --- | --- |
| COc1ccc(Nc2ccnc(NCC3CCNCC3)c2)cc1OCCCN1CCCC1 [Compound 11, N^4-(4-methoxy-3-(3-(pyrrolidin-1-yl)propoxy)phenyl)-N^2-(piperidin-4-ylmethyl)pyridine-2,4-diamine] | < 0.1 | < 0.1 |
| CCCCNc1nccc(NC2CCCCC2)n1 [Compound 58] | > 10 | > 10 |
| CCCCNc1nccc(NCC2CCOCC2)n1 [Compound 59] | > 10 | > 10 |
| CCCCNc1nccc(NCC2CCNCC2)n1 [Compound 60] | 1 to 10 | 1 to 10 |
| CCCCNc1nccc(NCC2CCCCC2)n1 [Compound 61] | > 10 | > 10 |
| CCCCNc1nccc(NCC2CCOC2)n1 (stereo not drawn) [Compound 62] | > 10 | > 10 |
| CCCCNc1nccc(NC2CCOCC2)n1 [Compound 63] | > 10 | > 10 |
| CCCCNc1nccc(NC2CCNCC2)n1 [Compound 64] | > 10 | > 10 |
| CCCCNc1nccc(NC2CCN(C(C)=O)CC2)n1 [Compound 65] | > 10 | > 10 |
| CCCCNc1nccc(NCC2CCN(C(C)=O)CC2)n1 [Compound 66] | > 10 | > 10 |
| CCCCNc1nccc(NCC2CCCO2)n1 (stereo not drawn) [Compound 67] | > 10 | > 10 |
| CCCCNc1nccc(NCC2CCC(N)CC2)n1 (stereo not drawn) [Compound 68] | > 10 | > 10 |
| CCCCNc1nccc(NCC2CCC(NC(C)=O)CC2)n1 (stereo not drawn) [Compound 69] | > 10 | > 10 |
| CCCCNc1nccc(NC2CCC(N)CC2)n1 (stereo not drawn) [Compound 70] | > 10 | > 10 |
| CCCCNc1nccc(NC2CCC(NC(C)=O)CC2)n1 (stereo not drawn) [Compound 71] | > 10 | > 10 |
| CCCCNc1ccnc(NCCCC)n1 [Compound 72] | > 10 | > 10 |
| CCCCNc1ccnc(NCCCN2CCCC2)n1 [Compound 73] | > 10 | > 10 |
| CCCCNc1nccc(NCCCN2CCCC2)n1 [Compound 74] | > 10 | > 10 |
| COCCNc1nccc(N)n1 [Compound 75] | > 10 | > 10 |
| CCCCNc1nccc(NCCCN(C)C)n1 [Compound 76] | > 10 | > 10 |
| CCCCNc1ccnc(NCCCN)n1 [Compound 77] | > 10 | > 10 |
| CCCCNc1ccnc(NCCCN(C)C)n1 [Compound 78] | > 10 | > 10 |
| CCCCNc1nccc(NCCCN)n1 [Compound 79] | > 10 | 1 to 10 |
| CCCCNc1nccc(C(N)=O)n1 [Compound 80] | > 10 | > 10 |
| CCCCNc1nccc(C(=O)NC2CCOCC2)n1 [Compound 81] | > 10 | > 10 |
| CCCCNc1ncc(-c2ccccc2)c(N)n1 [Compound 82] | > 10 | > 10 |

| SMILES | IC50 (human EHMT2 913-1193) [µM] | IC50 (EHMT1) [µM] |
| --- | --- | --- |
| CCCCNc1ncc(C#N)c(NCC2CCNCC2)n1 [Compound 83] | > 10 | > 10 |
| CCCCNc1nc(NCC2CCNCC2)ncc1C#N [Compound 84] | > 10 | > 10 |
| CCCCNc1nc(NCC2CCNCC2)cc(C(N)=O)n1 [Compound 85] | > 10 | > 10 |
| CCCCNc1nc(C)cc(NCC2CCNCC2)n1 [Compound 86] | 1 to 10 | 1 to 10 |
| CCCCNc1ccnc(NCC2CCN(C)CC2)n1 [Compound 87] | 1 to 10 | 1 to 10 |
| CCCCNc1ncc(C(N)=O)c(NCC2CCNCC2)n1 [Compound 89] | > 10 | > 10 |
| CCCCNc1ncc(C)c(NCC2CCNCC2)n1 [Compound 91] | > 10 | 1 to 10 |
| O=C(NCCNc1ccnc(NCC2CCNCC2)n1)c1ccc2c(c1)OC(F)(F)O2 [Compound 92] | > 10 | > 10 |
| O=C(NCCNc1ccnc(NCC2CCNCC2)n1)c1cn(C2CC2)nn1 [Compound 93] | > 10 | > 10 |
| CCCCNc1nc(C#N)cc(NCC2CCNCC2)n1 [Compound 94] | 1 to 10 | 1 to 10 |
| O=C(NCCNc1ccnc(NCC2CCNCC2)n1)c1ccc2[nH]c(=O)oc2c1 [Compound 95] | > 10 | > 10 |
| O=C1Cc2cc(C(=O)NCCNc3ccnc(NCC4CCNCC4)n3)ccc2N1 [Compound 96] | 1 to 10 | 1 to 10 |
| CN1CCC(CNc2nccc(NCCNC(=O)c3ccc4c(c3)CC(=O)N4)n2)CC1 [Compound 97] | 1 to 10 | 1 to 10 |
| CC(=O)N1CCC(CNc2nccc(NCCNC(=O)c3ccc4c(c3)CC(=O)N4)n2)CC1 [Compound 98] | > 10 | > 10 |
| O=C(NCCNc1ccnc(NCC2CCNCC2)n1)c1ccc(N2CCCC2)cc1 [Compound 99] | > 10 | > 10 |
| O=C(NCCNc1ccnc(NCC2CCNCC2)n1)c1cccc(N2CCCC2)c1 [Compound 100] | > 10 | > 10 |
| CN1CCC(CNc2nccc(NCCNC(=O)c3ccc4c(c3)CC(=O)N4)n2)CC1 [Compound 101] | 1 to 10 | > 10 |
| COc1ccc(Nc2nccc(N3CCOCC3)n2)cc1OCCCN1CCCC1 [Compound 102] | > 10 | > 10 |
| COc1ccc(Nc2nccc(CNC3CCNCC3)n2)cc1OCCCN1CCCC1 [Compound 104] | > 10 | > 10 |
| O=C1Cc2cc(C(=O)NCCNc3nccc(NCC4CCNCC4)n3)ccc2N1 [Compound 105] | 1 to 10 | > 10 |
| COc1ccc(Nc2nccc(CNC3CCN(C(C)=O)CC3)n2)cc1OCCCN1CCCC1 [Compound 106] | 1 to 10 | 0.1 to 1 |
| COc1ccc(Nc2nccc(CNC3CCOCC3)n2)cc1OCCCN1CCCC1 [Compound 107] | > 10 | > 10 |
| COc1ccc(Nc2cc(NCC3CCNCC3)ncn2)cc1OCCCN1CCCC1 [Compound 108] | 1 to 10 | 1 to 10 |
| COc1ccc(Nc2nccc(NCC3CCNCC3)n2)cc1OCCCC1CCCC1 [Compound 109] | 1 to 10 | 1 to 10 |
| COc1cnc(Nc2cc(CNC3CCOCC3)ccn2)cc1OCCCN1CCCC1 [Compound 110] | 1 to 10 | 1 to 10 |
